Common to all, as to assay type: biochemical
The target of assay [1] is IDH1 (R132C) (Homo sapiens, UniProt O75874, R132C). Put plainly: IDH1 R132C enzyme assay, NADPH depletion by diaphorase/resazurin coupled detection. The settings on record: 60 min preincubation with enzyme/NADPH, 45 min reaction, room temperature. The protocol:
(§1) Compounds were tested against 3 enzymes WT IDH1, IDH1 R132C, IDH1 R132H
(§2) Assay Format: The production or depletion of NADPH by IDH enzymes was measured by diaphorase/resazurin coupled detection.
(§3) Reaction Procedure Mutant:
(§4) 8. Deliver enzyme/NADPH in the reaction buffer into wells of reaction plate except No Enzyme control wells. Add buffer+NADPH into No Enzyme wells. 9. Deliver compound in 100% DMSO into the enzyme mixture. Spin down and preincubate for 60 min at room temperature. 10. Deliver Substrate mixture to initiate the reaction. Spin down plate and gently shake 45 minutes at room temperature.
(§5) Detection Step (the Same as Wt):
(§6) 11. Make a 3× mix of Detection mixture in the reaction buffer, and add detection mixture into the reaction. Spin down. 12. Incubate at room temperature for 10 minutes.
(§7) 13. Measure in Envision. (Ex/Em=535/590 nm)
(§8) 14. […] (the average value of the No Enzyme wells). Average the DMSO control wells and set value as 100%. Take ratio of measured data/average DMSO control value times 100% to arrive at % activity.
A general note: The colour change of resazurin is a common sign of viable cells or microbes.

For assay [2], the target named is WT IDH1 (Homo sapiens, UniProt O75874). Put plainly: Wild-type IDH1 enzyme assay, NADPH production by diaphorase/resazurin coupled detection. The following applies: 60 min preincubation with enzyme/NADP, 45 min reaction, room temperature. The protocol:
as §1, §2
Reaction Procedure Wild-Type:
1. Deliver enzyme/NADP in the reaction buffer into wells of reaction plate except No Enzyme control wells. Add buffer+NADP into No Enzyme wells. 2. Deliver compound in 100% DMSO into the enzyme mixture. Spin down and preincubate for 60 min at room temperature. 3. Deliver Substrate mixture to initiate the reaction. Spin down plate and gently shake 45 minutes at room temperature.
4. Make a 3× mix of Detection mixture in the reaction buffer, and add detection mixture into the reaction. Spin down. 5. Incubate at room temperature for 10 minutes.
6. Measure in Envision. (Ex/Em=535/590 nm)
7. Subtract background (the average value of the No Enzyme control wells) from raw data. Average the DMSO control wells and set value as 100%. Take ratio of measured data/average DMSO control value times 100% to arrive at % activity.

Assay [3] addresses IDH1 (R132H) (Homo sapiens, UniProt O75874, R132H). Put plainly: IDH1 R132H enzyme assay, NADPH depletion by diaphorase/resazurin coupled detection. The following applies: 60 min preincubation with enzyme/NADPH, 45 min reaction, room temperature. The protocol:
as §1, §2, §3, §4, §5, §6, §7, §8

The source of these data is patent publication US20210403460A1, “INHIBITORS OF MUTANT ISOCITRATE DEHYDROGENASES AND COMPOSITIONS AND METHODS THEREOF” (IsoCure Biosciences Inc., priority 2016, published 2021).

What is called IC50 is the midpoint of a concentration-inhibition curve.

Molecules are shown by their SMILES.

Chain of WT IDH1 (O75874 whole entry): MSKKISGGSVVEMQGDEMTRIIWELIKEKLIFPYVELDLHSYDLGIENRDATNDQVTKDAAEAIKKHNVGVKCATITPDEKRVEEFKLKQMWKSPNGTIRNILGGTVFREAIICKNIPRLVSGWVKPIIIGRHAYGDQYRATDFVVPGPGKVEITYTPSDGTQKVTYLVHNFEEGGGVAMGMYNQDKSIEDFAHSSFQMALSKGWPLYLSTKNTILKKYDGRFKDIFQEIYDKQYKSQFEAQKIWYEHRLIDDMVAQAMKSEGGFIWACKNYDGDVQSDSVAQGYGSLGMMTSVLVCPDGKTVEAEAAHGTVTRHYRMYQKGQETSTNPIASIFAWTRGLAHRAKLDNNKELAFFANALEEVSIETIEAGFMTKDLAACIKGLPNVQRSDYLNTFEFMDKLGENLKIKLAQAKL
Chain of IDH1 (R132C) (O75874 whole entry R132C): as the sequence (O75874 whole entry) above, with R132C counted along it
Chain of IDH1 (R132H) (O75874 whole entry R132H): as the sequence (O75874 whole entry) above, with R132H counted along it

Take `C=CC(=O)N1CCN(Cc2ccc([C@H](C)Nc3nccc(N4C(=O)OC[C@@H]4C(C)C)n3)cc2)CC1` [IS01, (S)-3-(2-(((S)-1-(4-((4-acryloylpiperazin-1-yl)methyl)phenyl)ethyl)amino)pyrimidin-4-yl)-4-isopropyloxazolidin-2-one]: the IC50 was determined as 0.00161 µM in assay [1], 9.46 µM in assay [2] and 0.00132 µM in assay [3].
The corresponding values for `C=CC(=O)Nc1ccc(Nc2ccc([C@H](C)Nc3nccc(N4C(=O)OC[C@@H]4C(C)C)n3)cc2)nc1` [IS03, N-(6-((4-((S)-1-((4-((S)-4-isopropyl-2-oxooxazolidin-3-yl)pyrimidin-2-yl)amino)ethyl)phenyl)amino)pyridin-3-yl)acrylamide] are 0.00335 µM, 8.52 µM and 0.00361 µM.
`C=CC(=O)Nc1ccc(Nc2ccc([C@H](C)Nc3nccc(N4C(=O)OC[C@@H]4C(C)C)n3)cc2)cc1` [IS04, N-(4-((4-((S)-1-((4-((S)-4-isopropyl-2-oxooxazolidin-3-yl)pyrimidin-2-yl)amino)ethyl)phenyl)amino)phenyl)acrylamide]: the IC50 is 0.00755 µM in assay [1], > 10 µM in assay [2] and 0.0105 µM in assay [3].
Regarding `C=CC(=O)Nc1cccc(Nc2ccc([C@H](C)Nc3nccc(N4C(=O)OC[C@@H]4C(C)C)n3)cc2)c1` [IS05, N-(3-((4-((S)-1-((4-((S)-4-isopropyl-2-oxooxazolidin-3-yl)pyrimidin-2-yl)amino)ethyl)phenyl)amino)phenyl)acrylamide], the figures for the IC50 in assay [1] and in assay [2] were 0.00467 µM and > 1.48 µM, respectively.
Regarding `C=CC(=O)N1CCC(Oc2ccc(C(C)Nc3nccc(N4C(=O)OC[C@@H]4C(C)C)n3)cn2)CC1` (stereo partly drawn) [IS07, (4S)-3-(2-((1-(6-((1-acryloylpiperidin-4-yl)oxy)pyridin-3-yl)ethyl)amino)pyrimidin-4-yl)-4-isopropyloxazolidin-2-one], inhibition in assay [3] was half-maximal at 0.34 µM (IC50).
For the molecule `C=CC(=O)Nc1ccc(N(C)c2cnc(C(C)Nc3nccc(N4C(=O)OC[C@@H]4C(C)C)n3)nc2)cc1` (stereo partly drawn) [IS012, N-(4-((2-(1-((4-((S)-4-isopropyl-2-oxooxazolidin-3-yl)pyrimidin-2-yl)amino)ethyl)pyrimidin-5-yl)(methyl)amino)phenyl)acrylamide], the IC50 in assay [1] turned out to be 0.198 µM; in assay [3], 0.161 µM.
`C=CC(=O)Nc1cccc(-c2cnc(C(C)Nc3nccc(N4C(=O)OC[C@@H]4C(C)C)n3)nc2)c1` (stereo partly drawn) [IS013, N-(3-(2-(1-((4-((S)-4-isopropyl-2-oxooxazolidin-3-yl)pyrimidin-2-yl)amino)ethyl)pyrimidin-5-yl)phenyl)acrylamide]: the IC50 amounted to 0.285 µM in assay [1] and 0.107 µM in assay [3].
Turning to `C=CC(=O)N1CCN(Cc2ccc([C@H](C)Nc3nc(N4C(=O)OC[C@@H]4C(C)C)c4sccc4n3)cc2)CC1` [IS014, (S)-3-(2-(((S)-1-(4-((4-acryloylpiperazin-1-yl)methyl)phenyl)ethyl)amino)thieno [3,2-d]pyrimidin-4-yl)-4-isopropyloxazolidin-2-one], the concentration for half-maximal inhibition (IC50) in assay [1] turned out to be 0.00261 µM.
